# Assay results from ChEMBL document CHEMBL1132507, “Dibasic benzo[B]thiophene derivatives as a novel class of active site directed thrombin inhibitors: 4. SAR studies on the conformationally restricted C3-side chain of hydroxybenzo[B]thiophenes” (Bioorg Med Chem Lett, 1999).
# Target: Prothrombin (Homo sapiens) (UniProt P00734)
# Experiment: Apparent association constant towards thrombin.
row,SMILES,K ass
1,Cc1cc(Cc2c(-c3ccc(OCCN4CCCC4)cc3)sc3cc(O)ccc23)ccc1O[C@@H]1CCCC[C@H]1N1CCCC1,3.49e+08 l M-1
2,Oc1ccc2c(Cc3ccc(O[C@@H]4CCCC[C@H]4N4CCCCC4)c(F)c3)c(-c3ccc(OCCN4CCCC4)cc3)sc2c1,2.03e+08 l M-1
3,c1ccc2c(Cc3ccc(O[C@@H]4CCCC[C@H]4N4CCCCC4)cc3)c(-c3ccc(OCCN4CCCC4)cc3)sc2c1,2.04e+07 l M-1
4,COc1cc(Cc2c(-c3ccc(OCCN4CCCC4)cc3)sc3cc(O)ccc23)ccc1O[C@@H]1CCCC[C@H]1N1CCCC1,3.09e+08 l M-1
5,COc1cc(Cc2c(-c3ccc(OCCN4CCCC4)cc3)sc3cc(O)ccc23)ccc1O[C@@H]1CCCC[C@H]1N(C)C,1.46e+08 l M-1
6,Oc1ccc2c(Cc3ccc(O[C@@H]4CCCC[C@H]4N4CCCCC4)nc3)c(-c3ccc(OCCN4CCCC4)cc3)sc2c1,9.61e+07 l M-1
7,COc1cccc2c(Cc3ccc(O[C@@H]4CCCC[C@H]4N4CCCCC4)cc3)c(-c3ccc(OCCN4CCCC4)cc3)sc12,118000 l M-1
8,Oc1ccc2c(Cc3ccc(O[C@@H]4CCCC[C@H]4N4CCOCC4)cc3)c(-c3ccc(OCCN4CCCC4)cc3)sc2c1,1.81e+07 l M-1
9,O=C(c1ccc(O[C@@H]2CCCC[C@H]2N2CCCCC2)cc1)c1c(-c2ccc(OCCN3CCCC3)cc2)sc2ccccc12,1.17e+06 l M-1
10,COc1cc(Cc2c(-c3ccc(OCCN4CCCC4)cc3)sc3cc(O)ccc23)ccc1O[C@@H]1CCCC[C@H]1N1CCCCC1,1.16e+08 l M-1
11,Oc1ccc2sc(-c3ccc(OCCN4CCCC4)cc3)c(Cc3ccc(OC4CCCC[C@H]4N4CCCCC4)cc3)c2c1 (stereo partly drawn),1.39e+07 l M-1
12,Oc1ccc2c(Cc3ccc(O[C@@H]4CCCC[C@H]4N4CCCCCC4)cc3)c(-c3ccc(OCCN4CCCC4)cc3)sc2c1,7.48e+07 l M-1
13,Oc1ccc2c(Cc3ccc(O[C@@H]4CCCC[C@H]4N4CCCC4)c(Br)c3)c(-c3ccc(OCCN4CCCC4)cc3)sc2c1,2.8e+08 l M-1
14,Oc1ccc2c(Cc3ccc(O[C@@H]4CCCC[C@H]4N4CCCC4)cc3)c(-c3ccc(OCCN4CCCC4)cc3)sc2c1,2.18e+08 l M-1
15,O=C(c1ccc(O[C@@H]2CCCC[C@H]2N2CCCCCC2)cc1)c1c(-c2ccc(OCCN3CCCC3)cc2)sc2ccccc12,490000 l M-1
16,CCN(CC)[C@@H]1CCCC[C@H]1Oc1ccc(Cc2c(-c3ccc(OCCN4CCCC4)cc3)sc3cc(O)ccc23)cc1,4.98e+07 l M-1
17,Oc1cccc2c(Cc3ccc(O[C@@H]4CCCC[C@H]4N4CCCCC4)cc3)c(-c3ccc(OCCN4CCCC4)cc3)sc12,1.08e+06 l M-1
18,Oc1ccc2c(Cc3ccc(O[C@@H]4CCCC[C@H]4n4ccnc4)cc3)c(-c3ccc(OCCN4CCCC4)cc3)sc2c1,8.08e+06 l M-1
19,CN(C)[C@@H]1CCCC[C@H]1Oc1ccc(Cc2c(-c3ccc(OCCN4CCCC4)cc3)sc3cc(O)ccc23)cc1,5.11e+07 l M-1
20,Oc1ccc2c(Cc3ccc(O[C@@H]4CCCC[C@H]4N4CCCCC4)cc3)c(-c3ccc(OCCN4CCCC4)cc3)sc2c1,2.12e+08 l M-1
21,COc1ccc2c(Cc3ccc(O[C@@H]4CCCC[C@H]4N4CCCCC4)cc3)c(-c3ccc(OCCN4CCCC4)cc3)sc2c1,3.83e+06 l M-1
22,O=C(c1ccc(O[C@@H]2CCCC[C@H]2N2CCCC2)cc1)c1c(-c2ccc(OCCN3CCCC3)cc2)sc2ccccc12,510000 l M-1
23,Oc1ccc2c(Cc3ccc(O[C@@H]4CCCC[C@H]4N4CCCC4)c(O)c3)c(-c3ccc(OCCN4CCCC4)cc3)sc2c1,1.12e+07 l M-1
24,COc1ccc2sc(-c3ccc(OCCN4CCCC4)cc3)c(Cc3ccc(O[C@@H]4CCCC[C@H]4N4CCCCC4)cc3)c2c1,3.65e+07 l M-1
25,Oc1ccc2c(Cc3ccc(O[C@@H]4CCCC[C@H]4N4CCCC4)c(F)c3)c(-c3ccc(OCCN4CCCC4)cc3)sc2c1,1.21e+08 l M-1
26,Oc1cccc2sc(-c3ccc(OCCN4CCCC4)cc3)c(Cc3ccc(O[C@@H]4CCCC[C@H]4N4CCCCC4)cc3)c12,1.73e+06 l M-1
27,Oc1ccc2c(Cc3ccc(O[C@@H]4CCC[C@H]4N4CCCCC4)cc3)c(-c3ccc(OCCN4CCCC4)cc3)sc2c1,4.73e+07 l M-1
28,Oc1ccc2c(Cc3ccc(O[C@@H]4CCCC[C@H]4N4CCCC4)c(C(F)(F)F)c3)c(-c3ccc(OCCN4CCCC4)cc3)sc2c1,6.84e+07 l M-1
